This note sets out measurements from patent publication US4624950A, “Method for treating atherosclerosis hyperlipidema, lipid deposition on arterial walls, or raising the ratio of high density lipoprotein cholesterol to total cholesterol in serum” (Nissan Chemical Industries Ltd., priority 1983, dated 1986).

Like-named read-outs stand apart in the source and are kept apart here.

Data set [1] relates to Triton-induced hyperlipidemic rats. As to the kind of experiment: Antihyperlipidemic activity in Triton-induced hyperlipidemic rats, method A (24 hours) (Test 2). It is filed as in vivo, rat (male S.D.). On the procedure: (§1) Cholesterol in serum was measured by means of a cholesterol measuring kit (Cholesterol C-Test Wako, manufactured by Wako Junyaku Co., Ltd.), and cholesterol in HDL was measured by means of NC Hi-Set, manufactured by Nippon Chemiphar Co., Ltd. The quantitative analysis of triglyceride was conducted by means of a triglyceride measuring kit (Triglyceride C-II-Test Wako, manufactured by Wako Junyaku Co., Ltd.). Further, the change rate in the following Tables, was calculated by the following equation. Change rate(%)=(A-B/A)×100 where A is the amount of serum lipids (mg/dl) of the control group, and B is the amount of serum lipids (mg/dl) of the group to which the therapeutic agent was administered. The antihyperlipidemic activity in Triton-induced hyperlipidemic rats Male S.D. rats weighing 230-250 g (7 weeks old) were divided into groups of 5 rats each and injected with a physiological saline solution of Triton Wr-1339 in a dose of 250 mg/kg (5 ml/kg) i.v. through the tail vein. […] The test compounds suspended in 0.5% CMC-Na were given to the rats in an amount of 2 ml/kg via stomach tube 1 hour before and 5 hours after (in the case of method A) or 1 hour before and 23 hours after (in the case of method B) the injection of Triton solution. Control rats received the same volume of the vehicle. The animals were fasted during the experimental period. The total cholesterol and triglyceride in the serum were measured.

Another data set concerns cytochrome P-450. Nature of the data set: Effect on cytochrome P-450 / hepatic drug metabolizing systems of normal rats (Test 5). It is filed as in vivo, rat (male S.D.). To be noted: 300 mg/kg/day, seven days. Here is the method:
(§2) The activities against serum lipid, the degree of hepatomegaly and the hepatic drug metabolizing systems of normal rats
(§3) Male S.D. rats (6 weeks old) were divided into groups of 5 rats each. The test compounds suspended in 5% gum arabic were given to the rats once a day for seven days in a daily dose of 300 mg/kg. Then, the rats were fasted for one day, blood samples were taken, and the total cholesterol, triglyceride, HDL-cholesterol in the serum were quantitatively analyzed. Further, the liver weight was measured, and the degree of hepatomegaly was determined by comparing the weight ratio per 100 g of the body weight with that of the control group. Furthermore, GOT and GPT values were measured, and the activities of cytochrome P-450 and glutathione related enzymes were also measured. These values were compared with those of the control groups to investigate any abnormality.

Data set [2] concerns Escherichia coli (WP2UVrA). The conditions noted are these: up to 5000 μg/Plate, absence or presence of S-9 mix of rat liver. Here is the method: (§4) The mutagenicity was tested by using Escherichia coli (WP2UVrA) and Salmonella (TA98, TA100, TA1535 and TA1538) in the absence or presence of a drug metabolizing enzymes S-9 mix of rat liver.
In data set [3] the test system is glutathione related enzymes. Nature of the data set: Effect on glutathione related enzymes of normal rats (Test 5). The class given is in vivo, rat (male S.D.). The conditions noted are these: 300 mg/kg/day, seven days. Here is the method: as §2, §3
For data set [4], the system named is Triton-induced hyperlipidemic rats. Nature of the data set: Antihyperlipidemic activity in Triton-induced hyperlipidemic rats, method B (43 hours) (Test 2). It is filed as in vivo, rat (male S.D.). On the procedure: as §1
The test system of data set [5] is Salmonella (TA98, TA100, TA1535 and TA1538). Nature of the data set: Mutagenicity test, Salmonella (Test 6). To be noted: up to 5000 μg/Plate, absence or presence of S-9 mix of rat liver. On the procedure:
as §4

A short description of data set [6]: Acute toxicity test (Test 7). The conditions noted are these: mouse, in vivo, mortality after seven days, read-out: Acute toxicity: dose up to which no toxicity was shown. Here is the method:
The test compounds suspended in 0.5% CMC-Na were administered p.o. or injected i.p. to male ddY mice. The acute toxicity was dertermined based on the mortality after seven days.

Data set [7] has as its system emulsion-induced hyperlipidemic rats. Nature of the data set: Antihyperlipidemic activity in emulsion-induced hyperlipidemic rats (Test 1). The class given is in vivo, rat (male S.D.). The conditions noted are these: 300 mg/kg/day p.o., 3 days. Here is the method:
The daily dose of the compound of the formula I is from 0.01 to 3.0 g, preferably from 0.1 to 1.5 g, for an adult. It is administered from once to three times per day. The dose may of course be varied depending upon the age, the weight or the condition of illness of the patient. Now, the usefulness of the compound of the formula I as an antiatherosclerotic agent will be shown by tests. In the following tests, the fractionation of lipoproteins was conducted by a dextran sulfate-MgCl2 precipitation method.
Cholesterol in serum was measured by means of a cholesterol measuring kit (Cholesterol C-Test Wako, manufactured by Wako Junyaku Co., Ltd.), and cholesterol in HDL was measured by means of NC Hi-Set, manufactured by Nippon Chemiphar Co., Ltd. The quantitative analysis of triglyceride was conducted by means of a triglyceride measuring kit (Triglyceride C-II-Test Wako, manufactured by Wako Junyaku Co., Ltd.).
Further, the change rate in the following Tables, was calculated by the following equation.
Change rate(%)=(A-B/A)×100
where A is the amount of serum lipids (mg/dl) of the control group, and B is the amount of serum lipids (mg/dl) of the group to which the therapeutic agent was administered.
The antihyperlipidemic activity in emulsion-induced hyperlipidemic rats
Male S.D. rats weighing 80-90 g (4 weeks old) were used. They were divided into groups of 5 to 6 rats each. The test compounds suspended in 0.5% CMC-Na(carboxymethyl cellulose sodium salt) were given to the rats in a daily dose of 4 ml/kg via stomach tube every 10:00 a.m. After 30 min., lipids emulsion having the following composition was orally given to the rats in an amount of 2.5 ml per rat. During the experimental period of 3 days, the rats were fed on a standard commercial diet and water ad libitum. […] The total cholesterol and triglyceride, and HDL cholesterol were measured.

For the compound `CN1C(=S)SC(c2ccccc2)N(C)C1c1ccccc1` (stereo not drawn) [Compound of the formula I, 3,5-dimethyl-4,6-diphenyl-tetrahydro-2H-1,3,5-thiadiazine-2-thione], in data set [1] (150 mg/kg p.o.), the “Change rate after 24 hours, Chol” value is given as -6.0% and the “Change rate after 24 hours, TG” value is on record as “+21.8%”. Also, in data set [1] (method A), the “Lipid reducing activity (in words)” value was “no lipid reducing activity was observed”. For the same compound, the “Abnormalities in activity against cytochrome P-450 or other liver microsome drug metabolizing systems (in words)” value in the data set with cytochrome P-450 is given as “no abnormalities were observed”. In addition, the Mutagenicity entry in data set [2] is listed as “did not show any mutagenicity”. The “Abnormalities in activity against glutathione related enzymes (in words)” value in data set [3] is reported as “no abnormalities were observed”. Moreover, in data set [4] (150 mg/kg p.o.), the “Change rate after 43 hours, Chol” value is -43.5% and the “Change rate after 43 hours, TG” value is reported as -65.7%. The “Lipid reducing activity (in words)” value in data set [4] (method B) was “distinc lipid reducing activity”. Besides, the Mutagenicity result in data set [5] is listed as “did not show any mutagenicity”. For the same compound, in data set [6] (ip, abdominal (i.p.) administration), the NOAEL at 168 h was no less than 4000 mg/kg. In addition, in data set [6] (oral administration), the NOAEL at 168 h was no less than 8000 mg/kg. Also, in data set [7], the “Serum lipid, HDL-Chol” value came out at 22.1 mg/dL; the “Serum lipid, TG” value is 97.4 mg/dL; the “Serum lipid, Total Chol” value worked out at 145 mg/dL. Moreover, in data set [7] (vs control), the “Change rate, HDL-Chol” value was “+80.6%”; the “Change rate, TG” value is given as -36%; the “Change rate, Total Chol” value is -45.0%.
